Literature values as cited in patent US20090306452A1, “APPARATUS FOR TREATING A CONTAMINATED MEDIA WITH A SORBENT” (priority 2008, published 2009).

Settings: log10 of concentration in octanol / concentration in water; examples of hydrophobic hazardous materials

Row | Compound | Log P
1 | c1ccc2c(c1)Oc1ccccc1O2 [dibenzo (1,4) dioxin] | about 4
2 | Clc1cc2oc3c(Cl)cc(Cl)c(Cl)c3c2c(Cl)c1Cl [1,2,3,6,8,9-hexachloro-dibenzofuran] | about 7
3 | hexafluoromethane | about 2
4 | Clc1cc(Cl)cc(C2(CC(Cl)(Cl)Cl)CO2)c1 (stereo not shown) [2-(3,5-dichlorophenyl)-2-(2,2,2-trichloroethyl) oxirane] | about 4
